Assay type in all cases: in vivo
A short description of test [1]: Taste profile by calibrated taste panel at concentrations equisweet to 3% sucrose. The conditions noted are these: 0- to 5-point scale. The protocol:
The overall taste profile achieved with the sweetening composition of the present invention was evaluated and compared with the target taste profile of sucrose.
For this assay, all samples were evaluated at the same sweetness level, so each sample was used at a concentration which was equisweet to 3% sucrose. For each sample, the following parameters were evaluated: • Time to first sweetness detection • Time to maximum sweetness • Lingering (time for the sweetness to disappear) • Off-flavour: menthol, liquorice (any tastes that are different from sweetness) • Mouthfeel (density, i.e., the perceived viscosity in the mouth)
These evaluations were carried out by a calibrated taste panel, and conducted at room temperature.
Each of those parameters was evaluated on a 0- to 5-point scale. The values for sucrose were the reference, and were considered the target to emulate.

Test [2] is described as follows: Masking bitterness of quinine, test panel, equibitter solution. The conditions noted are these: 250 ppm quinine. The protocol: The bitter masking effect against quinine was assayed, following an analogous procedure to the one used in Example 10 for paracetamol.
The following substances were assayed: NHDC alone, beta-cyclodextrin alone, a composition comprising NHDC and beta-cyclodextrin in a molar ratio 1:1 (Example F) and a composition comprising NHDC and beta-cyclodextrin in a molar ratio 1:3 (Example G).
Analogously to Example 10, several aqueous solutions were prepared, each containing 250 ppm of quinine and different concentrations of the tested substance, namely, 5, 25, 50, 75 and 100 ppm. For each tested solution, a test panel determined the equibitter quinine solution, and the masking effect was calculated using a formula analogous to formula III (substituting 5000 with […]).
The masking synergies between beta-cyclodextrin and NHDC in Examples F and G were calculated following an analogous procedure to the one disclosed in Example 10. Therefore, using the molecular weight of each component, the amounts of beta-cyclodextrin and NHDC contained in each amount of the combinations of Examples F and G were calculated and, then, the antibittering contribution of each component was calculated on the basis of the data of Table 19. The expected masking effect was calculated as the sum of the contributions of each component, and, finally, the masking synergy was calculated (using Formula IV).

Test [3] is described as follows: Sweetening synergy sensory test: concentration equisweet to sucrose reference solutions in water, expert panel. Conditions: for Relative sweetening power: ratio sucrose concentration / equisweet concentration; for Equisweet concentration: room temperature. As for the experimental part:
A sensory test was performed to assess the sweetening synergism achieved with the composition of the invention (Examples A and B), and this effect was also compared to the effect obtained with analogous compositions containing beta-cyclodextrin (Comparative Examples A and B). Further compositions of the present invention (Examples C, D and E) were also assessed in this sensory test.
A group of expert panellists in sweet descriptors evaluated the sweetness of the different compositions as well as that of the ingredients NHDC, beta-cyclodextrin and gamma-cyclodextrin used alone.
Each evaluated sweetening agent was dissolved in water at different concentrations, at room temperature. The panel then determined, for each product, the concentration that was equisweet to the reference solutions of 1% and 3% sucrose in water. The results are summarized in Table 3 (Examples A and B are abbreviated as Ex. A and Ex. B, respectively, and the Comparative Examples A and B are abbreviated as Comp. A and Comp. B, respectively).
Since beta- and gamma-cyclodextrins are also sweet compounds, the equisweet concentrations of both cyclodextrins were also determined by the test panel to assess their possible contribution to the sweetness of the composition. […] Therefore, as the equisweet concentrations of both cyclodextrins are at least three orders of magnitude larger than those of NHDC, it was concluded that their contribution to the sweetness was negligible.
A more quantitative evaluation of the sweetness synergy provided by the compositions of the present invention was performed by comparing the real measured sweetness of the compositions comprising gamma-cyclodextrin and NHDC with the theoretical sweetness expected from the sum of the individual contribution of each component in the composition.
To this end, the relative sweetening power of each component was first calculated. For comparative purposes, the relative sweetening power of beta-cyclodextrin was also calculated. The relative sweetening power of a given compound, at a given sweetness level, indicates how many times sweeter this compound is than sucrose. It is therefore calculated as the ratio between the concentration of sucrose and the equisweet concentration of each ingredient, for each sweetness level.
From the relative sweetening power of each ingredient, it is possible to calculate the expected sweetness (sucrose equivalence) of a blend of those ingredients, according to Formula I:
Expected sweetness (sucrose equivalence) of a blend C1+C2=Concentration of compound C1×relative sweetening power of compound C1+Concentration of compound C2×relative sweetening power of compound C2
Then, the sweetness synergy of a blend of components can be calculated according to Formula II: […]
As disclosed above in Example 3, the relative sweetening power of a given compound, at a given sweetness level, indicates how many times sweeter than sucrose the compound is, and the value is calculated as the ratio between the concentration of sucrose and the equisweet concentration of the compound.

Test [4] is described as follows: Sucrose substitution in orange juice based soft drink, triangular testing by calibrated panel. From the text:
The purpose of this example was to maximize the sugar substitution in an orange juice based soft drink while maintaining the same overall taste profile. A calibrated panel was not able to distinguish the reference from the different prototypes in triangular testing.
The reference product (Formula 1 of Table 10) contained 10% added sucrose. The maximum sucrose substitution achieved with NHDC was 15% out of the initial 10 by using 10 ppm of NHDC (Formula 2 of Table 10). With the sweetening composition of the present invention, it was possible to increase the sucrose substitution, up to 25% without changing the taste profile of the beverage (Formula 3 of Table 10).
The composition of each beverage is disclosed in Table 10. For the preparation of these beverages, an orange juice concentrate 65° Bx (Dallant) and orange flavor #2N341/C (Dallant) were used. All the percentages in the table are by weight.

Several values for one entry are separate records, joined by “and”; a condition that tells them apart may be missing. Equal entries are not always repeated.

`COc1ccc(CCC(=O)c2c(O)cc(O[C@@H]3O[C@H](CO)[C@@H](O)[C@H](O)[C@H]3O[C@@H]3O[C@@H](C)[C@H](O)[C@@H](O)[C@H]3O)cc2O)cc1O` [NHDC, 1-[4-[[2-O-(6-Deoxy-α-L-mannopyranosyl)-β-D-glucopyranosyl]oxy]-2,6-dihydroxyphenyl]-3-(3-hydroxy-4-methoxyphenyl)propan-1-one] displayed a Lingering in test [1] of 4.00. Also, in test [1], the “Mouthfeel (density)” value turned out to be 1.75. Also, in test [1], the “Off-flavour: menthol, licorice” value came out at 3.25. The “Time to first sweetness” value in test [1] was determined as 3.75. In addition, in test [1], the “Time to maximum sweetness” value turned out to be 4.25. Also, the Total sweetness in test [1] is recorded as 5.00. In addition, the “Masking effect (real)” value worked out at 5.00% in test [2] (tested substance 5 ppm); 13.33% in test [2] (tested substance 25 ppm); 30.00% in test [2] (tested substance 50 ppm); 48.33% in test [2] (tested substance 75 ppm); 50.00% in test [2] (tested substance 100 ppm). The values for the Relative sweetening power in test [3] (1% sucrose level) and in test [3] (3% sucrose level) were 2000 and 1250, respectively. Also, the “NHDC amount contained in the equisweet concentration” value is recorded as “(5.0) ppm” in test [3] (1% sucrose sweetness level) and “(24.0) ppm” in test [3] (3% sucrose sweetness level). The Equisweet concentration in test [3] (equisweet to 1% sucrose in water) is 5 ppm and 5.0 ppm; in test [3] (equisweet to 3% sucrose in water), 24 ppm and 24.0 ppm. In test [4], the “Amount used for the maximum sucrose substitution” value came out at 10 ppm. Besides, the “Maximum sucrose substitution without changing the taste profile” value in test [4] (reference with 10% added sucrose) was determined as 15%.

The record behind these values is patent US20230054887A1, “SWEETENING AND TASTE-MASKING COMPOSITIONS, PRODUCTS AND USES THEREOF” (HEALTHTECH BIO ACTIVES, S.L.U., priority 2017, published 2023).
